Common to all, as to format: cell-based
One data set relates to HCV genotype 1a replicon. Kind of data set: Anti-HCV-1a replicon activity (luciferase, Bright-Glo). As to conditions: Hepatitis C virus, Huh-7, 72 h, read-out: EC50 against HCV-1a replicon. The procedure: (§1) 1) Preparation of compounds: adding 75 μl of the compounds of the present invention at the above concentration gradient to a 96-well plate using POD810 system, with each concentration for each compound in duplicate;
(§2) 2) Preparation of cells: collecting HCV 1b replicon cells in logarithmic phase and resuspending them in DMEM complete medium, and then adding 75 μl of the cell suspension to each well of the above 96-well plate (8×10^3 cells/well); at the same time, establishing zero percent effect (ZPE) control group and hundred percent effect (HPE) control group, with ZPE group using complete culture medium containing 0.5% DMSO instead of the compound, and the HPE group merely containing DMEM medium in the wells.
(§3) 3) Cell culture: placing the 96-well plate in a 37° C., 5% CO2 incubator and culturing for 3 days.
(§4) 5) Anti-HCV replicon activity assay: adding luciferase luminescence substrate Bright-Glo to each well, and detecting luminescence signal values using the multimode microplate reader within 5 min, with the raw data (RLU) being used for calculation of the anti-HCV activities of the compounds;
(§5) 6) Data processing: processing the raw data using the following formula into the inhibition percentage of the compound against HCV replicon (Inhibition %) and the percentage of cell viability (Viability %): Inhibition %=(RLUZPE−RLUCPD)/(RLUZPE−RLUHPE)×100 Viability %=(RFUCPD−RFUHPE)/(RFUZPE−RFUHPE)×100 wherein CPD: the fluorescence signal value of the well of the compound; ZPE (zero percent effect): the fluorescence signal value of the zero percent effect control; HPE (hundred percent effect): the fluorescence signal value of the hundred percent effect control.
(§6) The Inhibition % and Viability % were introduced into GraphPad Prism software for data processing, respectively, to obtain the half effective concentration EC50 of the compound against HCV replicon and the half cytotoxic concentration CC50.
(§7) HCV 1a replicon cells, i.e., Huh7 cell line stably transfected with HCV genotype 1a replicon (provided by WuXi AppTec (Shanghai) Co., Ltd.) were used as the experimental cells. As described above for the HCV 1b replicon cell system, the HCV genotype 1a replicon cell systems were similarly prepared.
(§8) The anti-HCV-1a activities of the compounds of the present invention were tested according to the method for testing the anti-HCV-1b replicon activity in Experimental Example 1.
Background: Replicon systems follow genome replication, usually without infectious particles.

The next data set deals with HCV genotype 1b replicon. In words: Anti-HCV-1b replicon activity (luciferase, Bright-Glo). As to conditions: Hepatitis C virus, Huh-7, 72 h, read-out: EC50 against HCV-1b replicon. The procedure: (§9) Each of the compounds prepared in the above examples of the present invention was dissolved at 10 mM in DMSO, then diluted to 50 μM with DMEM complete medium, then diluted to 20 nM with complete medium containing 0.5% DMSO, and then serially diluted by 3-fold, to obtain a total of 10 concentrations.
(§10) HCV 1b replicon cells, i.e., Huh7 cell line stably transfected with HCV genotype 1b replicon, were provided by WuXi AppTec (Shanghai) Co., Ltd. Specific preparation methods of Huh7 lb replicon cell system can be found in Lohmann V, Korner F, Koch J, Herian U, Theilmann L, Bartenschlager R., Replication of subgenomic hepatitis C virus RNAs in a hepatoma cell line, Science 285 (5424): 110-113 (1999).
as §1, §2, §3, §4, §5, §6

A short description of data set [1]: Cell viability test (CellTiter-Fluor) in HCV 1a replicon cells. As to conditions: human, Huh7 cells stably transfected with HCV genotype 1a replicon; HCV 1a replicon Huh7 cells, 3 days culture; read-out: CC50 (half cytotoxic concentration). The procedure:
(§11) 4) Cell viability test: after adding detection reagent for fluorescence assay of cell growth to each well and culturing the cells in a 37° C., 5% CO2 incubator for one hour, detecting the fluorescence signal values using the multimode microplate reader, with the raw data (RFU) being used for calculation of the cytotoxicity of the compounds;
as §5, §6, §7, §8

Data set [2] can be described thus: Cell viability test (CellTiter-Fluor) in HCV 1b replicon cells. As to conditions: human, HCV 1b replicon Huh7 cells, 3 days culture, read-out: CC50 (half cytotoxic concentration). The procedure: as §9, §10, §1, §2, §3, §11, §5, §6
Setting [3] is: Huh7 cells stably transfected with HCV genotype 1b replicon.

We go through 11 compounds from patent US9512108B2, “9,9,10,10-Tetrafluoro-9,10-dihydrophenanthrene hepatitis C virus inhibitor and application thereof” (NANJING SANHOME PHARMACEUTICAL CO., LTD., priority 2013, dated 2016).

Each structure is given as a SMILES string.

What is called EC50 is the concentration giving half of the maximal effect.

As to `COC(=O)N[C@H](C(=O)N1CCC[C@H]1c1ncc(-c2ccc3c(c2)C(F)(F)C(F)(F)c2cc(-c4cnc([C@@H]5CCCN5C(=O)[C@@H](NC(=O)OC)C(C)C)[nH]4)ccc2-3)[nH]1)C(C)C` [Example 1, Dimethyl (2S,2′S)-1,1′-((2S,2′S)-2,2′-(5,5′-(9,9,10,10-tetrafluoro-9,10-dihydrophenanthren-2,7-diyl)bis(1H-imidazol-5,2-diyl))bis(pyrrolidin-2,1-diyl))bis(3-methyl-1-oxobutan-2,1-diyl)dicarbamate], the concentration giving a half-maximal response (EC50) in the data set with HCV genotype 1a replicon amounted to 0.19 nM; with HCV genotype 1b replicon, 0.0046 nM. The CC50 at 3 days in data set [1] and in data set [2] (setting [3]) was above 10 nM throughout.

As to `COC(=O)N[C@H](C(=O)N1CCC[C@H]1c1ncc(-c2ccc3c(c2)C(F)(F)C(F)(F)c2cc(-c4cnc([C@@H]5CCCN5C(=O)[C@@H](NC(=O)OC)[C@@H](C)O)[nH]4)ccc2-3)[nH]1)[C@@H](C)O` [Example 8, Dimethyl ((2S,2′S,3R,3′R)-((2S,2′S)-2,2′-(5,5′-(9,9,10,10-tetrafluoro-9,10-dihydrophenanthren-2,7-diyl)bis(1H-imidazol-5,2-diyl))bis(pyrrolidin-2,1-diyl))bis(3-hydroxy-1-oxobutan-2,1-diyl))dicarbamate], in the data set with HCV genotype 1b replicon, the concentration giving a half-maximal response (EC50) is 0.058 nM. Moreover, the CC50 at 3 days in data set [2] (setting [3]) was above 10 nM.

For `COC(=O)N[C@H](C(=O)N1CC2(CC2)C[C@H]1c1nc(-c2ccc3c(c2)C(F)(F)C(F)(F)c2cc(-c4ccc5nc([C@@H]6CCCN6C(=O)[C@@H](NC(=O)OC)C(C)C)[nH]c5c4)ccc2-3)c[nH]1)C(C)C` [Example 12, Methyl N-((2S)-1-((S)-2-(6-(7-((S)-2-(5-((S)-2-((methoxycarbonyl)amino)-3-methylbutanoyl)-5-azaspiro[2.4]heptan-6-yl)-1H-imidazol-5-yl)-9,9,10,10-tetrafluoro-dihydrophenanthren-2-yl)-1H-benzo[d]imidazol-2-yl)pyrrolidin-1-yl)-3-methyl-1-oxobutan-2-yl)carbamate], the EC50 came to 0.061 nM with HCV genotype 1a replicon and 0.008 nM in the data set on HCV genotype 1b replicon. Also, the CC50 at 3 days in data set [1] and in data set [2] (setting [3]) was above 10 nM each time.

As for `COC(=O)N[C@H](C(=O)N1[C@@H]2CC[C@@H](C2)[C@H]1c1ncc(-c2ccc3c(c2)C(F)(F)C(F)(F)c2cc(-c4cnc([C@@H]5[C@H]6CC[C@H](C6)N5C(=O)[C@@H](NC(=O)OC)C(C)(C)C)[nH]4)ccc2-3)[nH]1)C(C)(C)C` [Example 4, Dimethyl (2S,2′S)-1,1′-((1R,1′R,3S,3′S,4S,4′S)-3,3′-(5,5′-(9,9,10,10-tetrafluoro-9,10-dihydrophenanthren-2,7-diyl)bis(1H-imidazol-5,2-diyl))bis(2-azabicyclo[2.2.1]heptan-3,2-yl))bis(3,3-dimethyl-1-oxobutan-2,1-diyl)dicarbamate], the EC50 in the data set on HCV genotype 1b replicon was 0.047 nM. In addition, in data set [2] (setting [3]), the CC50 at 3 days was above 10 nM.

In the case of `COC(=O)N[C@H](C(=O)N1CCC[C@H]1c1ncc(-c2ccc3c(c2)C(F)(F)C(F)(F)c2cc(-c4cnc([C@@H]5CC6(CN5C(=O)[C@@H](NC(=O)OC)C(C)C)OCCO6)[nH]4)ccc2-3)[nH]1)C(C)C` [Example 14, Methyl N-((2S)-1-((S)-2-(5-(7-((S)-2-(7-((S)-2-((methoxycarbonyl)amino)-3-methylbutanoyl)-1,4-dioxa-7-azaspiro[4.4]nonan-8-yl)-1H-imidazol-5-yl)-9,9,10,10-tetrafluoro-9,10-dihydrophenanthren-2-yl)-1H-imidazol-2-yl)pyrrolidin-1-yl)-3-methyl-1-oxobutan-2-yl)carbamate], the figures for the concentration for a half-maximal effect (EC50) in the data set with HCV genotype 1a replicon and with HCV genotype 1b replicon were 0.15 nM and 0.006 nM, respectively. The CC50 at 3 days in data set [1] and in data set [2] (setting [3]) was above 10 nM in each case.

Turning to `COC(=O)N[C@H](C(=O)N1CCCC1c1ncc(-c2ccc(-c3ccc4c(c3)C(F)(F)C(F)(F)c3cc(-c5ccc(-c6cnc([C@@H]7CCCN7C(=O)[C@@H](NC(=O)OC)C(C)(C)C)[nH]6)cc5)ccc3-4)cc2)[nH]1)C(C)(C)C` (stereo partly drawn) [Example 2, dimethyl (2S,2′S)-1,1′-((2S,2′S)-2,2′-(5,5′-(4,4′-(9,9,10,10-tetrafluoro-9,10-dihydrophenanthren-2,7-diyl)bis(4,1-phenylene))bis(1H-imidazol-5,2-diyl))bis(pyrrolidin-2,1-diyl))bis(3,3-dimethyl-1-oxobutan-2,1-diyl)dicarbamate], in the data set on HCV genotype 1b replicon, the EC50 came out at 0.017 nM. Further, in data set [2] (setting [3]), the CC50 at 3 days was above 10 nM.

`COC(=O)N[C@H](C(=O)N1[C@@H]2CC[C@@H](C2)[C@H]1c1ncc(-c2ccc3c(c2)C(F)(F)C(F)(F)c2cc(-c4cnc([C@@H]5[C@H]6CC[C@H](C6)N5C(=O)[C@@H](NC(=O)OC)C(C)C)[nH]4)ccc2-3)[nH]1)C(C)C` [Example 3, Dimethyl (2S,2′S)-1,1′-((1R,1′R,3S,3′S,4S,4′S)-3,3′-(5,5′-(9,9,10,10-tetrafluoro-9,10-dihydrophenanthren-2,7-diyl)bis(1H-imidazol-5,2-diyl))bis(2-azabicyclo[2.2.1]heptan-3,2-yl))bis(3-methyl-1-oxobutan-2,1-diyl)dicarbamate]: the EC50 in the data set with HCV genotype 1b replicon stood at 0.017 nM. The CC50 at 3 days in data set [2] is above 10 nM.

With `COC(=O)N[C@H](C(=O)N1[C@@H]2CC[C@@H](C2)[C@H]1c1ncc(-c2ccc3c(c2)C(F)(F)C(F)(F)c2cc(-c4cnc([C@@H]5[C@H]6CC[C@H](C6)N5C(=O)[C@@H](NC(=O)OC)[C@@H](C)OC)[nH]4)ccc2-3)[nH]1)[C@@H](C)OC` [Example 6, Dimethyl (2S,2′S,3R,3′R)-1,1′-((1R,1′R,3S,3′S,4S,4′S)-3,3′-(5,5′-(9,9,10,10-tetrafluoro-9,10-dihydrophenanthren-2,7-diyl)bis(1H-imidazol-5,2-diyl))bis(2-azabicyclo[2.2.1]heptan-3,2-diyl))bis(3-methoxy-1-oxobutan-2,1-diyl)dicarbamate], the EC50 with HCV genotype 1b replicon was 0.014 nM. For the same compound, the CC50 at 3 days in data set [2] (setting [3]) is above 10 nM.

`COC(=O)N[C@H](C(=O)N1CCC[C@H]1c1ncc(-c2ccc3c(c2)C(F)(F)C(F)(F)c2cc(-c4cnc([C@@H]5CCCN5C(=O)[C@@H](NC(=O)OC)C(C)(C)C)[nH]4)ccc2-3)[nH]1)C(C)(C)C` [Example 7, Dimethyl (2S,2′S)-1,1′-((2S,2′S)-2,2′-(5,5′-(9,9,10,10-tetrafluoro-9,10-dihydrophenanthren-2,7-diyl)bis(1H-imidazol-5,2-diyl))bis(pyrrolidin-2,1-diyl))bis(3,3-dimethyl-1-oxobutan-2,1-diyl)dicarbamate]: the concentration giving a half-maximal response (EC50) with HCV genotype 1b replicon was found to be 0.0063 nM. Further, in data set [2] (setting [3]), the CC50 at 3 days is above 10 nM.

In the case of `COC(=O)N[C@H](C(=O)N1[C@@H]2CC[C@@H](C2)[C@H]1c1ncc(-c2ccc3c(c2)C(F)(F)C(F)(F)c2cc(-c4cnc([C@@H]5[C@H]6CC[C@H](C6)N5C(=O)[C@@H](NC(=O)OC)[C@@H](C)O)[nH]4)ccc2-3)[nH]1)[C@@H](C)O` [Example 5, Dimethyl (2S,2′S,3R,3′R)-1,1′-((1R,1′R,3S,3′S,4S,4′S)-3,3′-(5,5′-(9,9,10,10-tetrafluoro-9,10-dihydrophenanthren-2,7-diyl)bis(1H-imidazol-5,2-diyl))bis(2-azabicyclo[2.2.1]heptan-3,2-diyl))bis(3-hydroxy-1-oxobutan-2,1-diyl)dicarbamate], the half-maximal effective concentration (EC50) in the data set with HCV genotype 1b replicon turned out to be 0.041 nM. Also, the CC50 at 3 days in data set [2] was above 10 nM.

Regarding `COC(=O)N[C@H](C(=O)N1CCC[C@H]1c1ncc(-c2ccc3c(c2)C(F)(F)C(F)(F)c2cc(-c4cnc([C@@H]5CCCN5C(=O)[C@@H](NC(=O)OC)[C@@H](C)OC)[nH]4)ccc2-3)[nH]1)[C@@H](C)OC` [Example 13], the EC50 in the data set on HCV genotype 1b replicon is 0.056 nM. Besides, the CC50 at 3 days in data set [2] (setting [3]) is above 10 nM.
